In US20180028507A1, “3-CARBAMOYLPHENYL-4-CARBOXAMIDE AND ISOPHTALAMIDE DERIVATIVES AS INHIBITORS OF THE WNT SIGNALLING PATHWAY” (Bayer Pharma Aktiengesellschaft, priority 2015, published 2018):

Key:
[1] = system: constitutive active colorectal cancer cell (CRC) Wnt pathway; experiment: HCT116 TOPFlash cellular reporter assay (Super TopFlash vector, luciferase); assay type: cell-based; conditions: Homo sapiens, HCT-116; HCT116 Super TopFlash reporter cells, 36 hours incubation, dilution series 50 μM to 15 nM, luciferase expression
Experimental: In order to discover and characterize small molecules which inhibit the constitutive active colorectal cancer cell (CRC) Wnt pathway, a cellular reporter assay was employed. The corresponding assay cell was generated by transfection of the colorectal cancer cell line HCT116 (ATCC, #CCL-247) with the Super TopFlash vector (Morin, Science 275, 1997, 1787-1790; Molenaar et al., Cell 86 (3), 1996, 391-399). The HCT116 cell line is cultivated at 37° C. and 5% CO2 in DMEM/F-12 (Life Technologies, #11320-074), supplemented with 2 mM glutamine, 20 mM HEPES, 1.4 mM pyruvate, 0.15% Na-bicarbonate and 10% foetal bovine serum (GIBCO, #10270), this cancer cell line is pathophysiological relevant since it carries a deletion of position S45 in the β-catenin gene, leading to constitutive active Wnt signaling. Stable transfectants were generated by cotransfection with pcDNA3 and selection of stable transfected cells with 1 mg/ml G418.
(§1) In preparation of the assay, the two cell lines were plated 24 hours before at 10000 cells per well of a 384 micro titre plate (MTP) in 30 μL growth medium. Selective inhibitory activity for small molecules on the mutated Wnt pathway was determined after parallel incubation of both (TOP and FOP) HCT116 reporter cell lines with a compound dilution series from 50 μM to 15 nM in steps of 3.16-fold dilutions in CAFTY buffer (130 mM NaCl, 5 mM KCl, 20 mM HEPES, 1 mM MgCl2, 5 mM NaHCO3, pH 7.4) containing 2 mM Ca^2+ and 0.01% BSA. The compounds were thereby serially prediluted in 100% DMSO and thereafter in addition 50 fold into the CAFTY compound dilution buffer (described above). From this dilution 10 μL were added to the cells in 30 μL growth medium and incubated for 36 hours at 37° C. and 5% CO2.

[2] = system: HCT116 cells cotransfected with the FOP control vector (non-functional TCF elements); experiment: HCT116 FOPFlash control reporter assay (FOP control vector, luciferase); assay type: cell-based; conditions: Homo sapiens, HCT-116, 36 hours incubation, dilution series 50 μM to 15 nM, luciferase expression
Experimental: In a parallel approach, HCT116 cells were cotransfected with the FOP control vector and pcDNA3. The FOP vector is identical to the TOP construct, but it contains instead of functional TCF elements a randomized, non-functional sequence. For this transfection a stable transfected cell line was generated as well.
as §1

| SMILES | IC50 [1] [µM] | IC50 [2] [µM] |
| --- | --- | --- |
| O=C(Nc1ccc(-c2ccccc2F)nc1)c1ccc(OC(F)(F)F)c(C(=O)NCc2cccnc2)c1 [Example 18, N^1-[6-(2-fluorophenyl)pyridin-3-yl]-N^3-(pyridin-3-ylmethyl)-4-(trifluoromethoxy)isophthalamide] | 0.95 | 18.5 |
| COc1ccc(C(=O)Nc2ccc(-c3ccccc3)cc2)cc1C(=O)Nc1ccnc(C)c1 [Example 12, N^1-(biphenyl-4-yl)-4-methoxy-N^3-(2-methylpyridin-4-yl)isophthalamide] | 0.635 | 13.5 |
| O=C(Nc1ccc(-c2ccccc2)cc1)c1ccc(OC(F)(F)F)c(C(=O)Nc2ccncc2F)c1 [Example 22, N^1-(biphenyl-4-yl)-N^3-(3-fluoropyridin-4-yl)-4-(trifluoromethoxy)isophthalamide] | 0.375 | ≥ 50 |
| COCCCNC(=O)c1cc(NC(=O)c2ccc(-c3ccccc3)cc2)ccc1OC [Example 2, N-{4-methoxy-3-[(3-methoxypropyl)carbamoyl]phenyl}biphenyl-4-carboxamide] | 0.495 | ≥ 50 |
| Cc1cnccc1NC(=O)c1cc(C(=O)Nc2ccc(-c3ccccc3F)nc2)ccc1OC(F)(F)F [Example 19, N^1-[6-(2-fluorophenyl)pyridin-3-yl]-N^3-(3-methylpyridin-4-yl)-4-(trifluoromethoxy)isophthalamide] | 0.878 | ≥ 50 |
| CCOCCCNC(=O)c1cc(NC(=O)c2ccc(-c3ccccc3)cc2)ccc1OC [Example 5, N-{3-[(3-ethoxypropyl)carbamoyl]-4-methoxyphenyl}biphenyl-4-carboxamide] | 0.608 | 31 |

Results, then the compound that gave them:

| IC50 [1] [µM] | IC50 [2] [µM] | SMILES |
| --- | --- | --- |
| 4.59 | ≥ 50 | COCCNC(=O)c1cc(NC(=O)c2ccc(-c3ccccc3)cc2)ccc1OC [Example 31, N-{4-methoxy-3-[(2-methoxyethyl)carbamoyl]phenyl}biphenyl-4-carboxamide] |
| 0.835 | 23 | CC(C)(C)OC(=O)Nc1ccc(CNC(=O)c2cc(C(=O)Nc3ccc(-c4ccccc4)cc3)ccc2OC(F)(F)F)cn1 [Example 24, tert-butyl [5-({[5-(biphenyl-4-ylcarbamoyl)-2-(trifluoromethoxy)benzoyl]amino}methyl)pyridin-2-yl]carbamate] |
| 1.9 | 6.6 | Cc1ncccc1NC(=O)c1cc(C(=O)Nc2ccc(-c3ccccc3F)nc2)ccc1OC(F)(F)F [Example 58, N^1-[6-(2-fluorophenyl)pyridin-3-yl]-N^3-(2-methylpyridin-3-yl)-4-(trifluoromethoxy) isophthalamide] |
| 0.84 | ≥ 50 | COc1ccc(C(=O)Nc2ccc(-c3ccccc3F)nc2)cc1C(=O)Nc1cccnc1C [Example 25, N^1-[6-(2-fluorophenyl)pyridin-3-yl]-4-methoxy-N^3-(2-methylpyridin-3-yl)isophthalamide] |
| 0.76 | 16 | Nc1ccc(CNC(=O)c2cc(C(=O)Nc3ccc(-c4ccccc4)cc3)ccc2OC(F)(F)F)cn1 [Example 29, N^3-[(6-aminopyridin-3-yl)methyl]-N^1-(biphenyl-4-yl)-4-(trifluoromethoxy)isophthalamide] |
| 4.35 | ≥ 50 | COCC(C)(C)CNC(=O)c1cc(NC(=O)c2ccc(-c3ccccc3)cc2)ccc1OC [Example 35, N-{4-methoxy-3-[(3-methoxy-2,2-dimethylpropyl)carbamoyl]phenyl}biphenyl-4-carboxamide] |
| 1.8 | 8 | COc1ccc(C(=O)Nc2ccc(-c3ccccc3F)nc2)cc1C(=O)Nc1ccncc1 [Example 56, N^1-[6-(2-fluorophenyl)pyridin-3-yl]-4-methoxy-N^3-(pyridin-4-yl)isophthalamide] |
| 2.13 | ≥ 50 | O=C(Nc1ccc(-c2ccccc2F)nc1)c1ccc(OC(F)(F)F)c(C(=O)Nc2ccncc2F)c1 [Example 42, N^1-[6-(2-fluorophenyl)pyridin-3-yl]-N^3-(3-fluoropyridin-4-yl)-4-(trifluoromethoxy) isophthalamide] |
